Reference: ChEMBL document CHEMBL5584289, “Molecular understanding of the therapeutic potential of melanin inhibiting natural products” (RSC Med Chem, 2024)
≈ marks a conversion by molar mass, not a printed value. Peptide text beside a SMILES is read from it.

Legend:
Mushroom tyrosinase [1] = target: T1, Mushroom tyrosinase (Agaricus bisporus, UniProt O42713+Q00024+C7FF04+C7FF05); test: Inhibition of mushroom tyrosinase; format: protein assay
[2] = Antioxidant activity assessed as DPPH radical scavenging activity measured after 30 mins; format: functional
[3] = Antioxidant activity assessed as ABTS radical scavenging activity; format: functional
[4] = Antioxidant activity assessed as DPPH radical scavenging activity; format: functional
[5] = Antioxidant activity assessed as hydroxyl radical scavenging activity at 10 uM; format: functional
[6] = Antioxidant activity assessed as interaction reducing activity with DPPH at 10 uM measured after 1 hr by absorbance based assay; format: functional
[7] = Acute toxicity in zebrafish embryos assessed as lethal concentration compound measured for every 24 hrs in 96 hrs; set-up: species or system Danio rerio; details: in vivo
Mushroom tyrosinase [8] = target: T1, Mushroom tyrosinase; test: Inhibition of mushroom tyrosinase monophenolase activity; format: protein assay
Mushroom tyrosinase [9] = target: T1, Mushroom tyrosinase; test: Inhibition of mushroom tyrosinase diphenolase activity; format: protein assay
[10] = target: T2, Mushroom tyrosinase (Agaricus bisporus) (UniProt O42713+Q00024+C7FF04+C7FF05); test: Inhibition of mushroom tyrosinase at 25 uM using L-tyrosine as substrate incubated for 30 mins relative to control; format: protein assay
MNT-1 = test: Antiproliferative activity against human MNT-1 cells assessed as reduction in cell viability incubated for 72 hrs by MTT assay; format: functional, cell-based; details: MNT-1, 72 h
[11] = Inhibition of Artocarpus chama tyrosinase
[12] = target: T2, Mushroom tyrosinase (Agaricus bisporus); test: Inhibition of mushroom tyrosinase at 12.5 ug/ml using L-DOPA as substrate relative to control; format: protein assay; details: dose 12.5 µg/ml
[13] = target: T2, Mushroom tyrosinase (Agaricus bisporus); test: Inhibition of mushroom tyrosinase monophenolase activity at 12.5 ug/ml using L-tyrosine as substrate relative to control; format: protein assay; details: dose 12.5 µg/ml
B16 = test: Cytotoxicity against mouse B16 cells assessed as inhibition of cell proliferation incubated for 48 hrs by MTS assay; format: functional, cell-based; details: B16, 48 h
[14] = target: T2, Mushroom tyrosinase (Agaricus bisporus); test: Inhibition of mushroom tyrosinase at 50 ug/ml relative to control; format: protein assay; details: dose 50.0 µg/ml
B16-F10 [15] = test: Antimelanogenic activity against alpha-MSH-stimulated mouse B16-F10 cells assessed as intracellular melanin production level at 10 uM pre-incubated for 1 hrs followed by alph-MSH stimulation and measured after 72 hrs by microplate reader analysis; format: functional; details: time 73 hrs
B16-F10 [16] = test: Cytotoxicity against mouse B16-F10 cells assessed as reduction in cell viability at 15 uM incubated for 72 hrs relative to control; format: functional
B16-F10 [17] = test: Cytotoxicity against mouse B16-F10 cells; format: functional, cell-based

With `COc1c(O[C@@H]2O[C@H](CO)[C@@H](O)[C@H](O)[C@H]2O)cc2occ(-c3ccc(O)cc3)c(=O)c2c1O` [TECTORIDIN] the IC50 (Mushroom tyrosinase [1]) was 2.62 µg/mL, the IC50 [2] was 69.36 µg/mL (≈ 150 µM) and the IC50 [3] was 135.31 µg/mL (≈ 293 µM).

In the case of `CC(=O)CC(=O)c1ccc(O)c(O)c1`, the IC50 ([4]; read-out: IC50) is reported as 11.3 µM, the IC50 [5] is reported as 9.3 µM and the IC50 [6] is reported as 69.1 µM.

For `O=C1O[C@H]([C@@H](O)CO)C(O)=C1O` [ASCORBIC ACID], the IC50 [4] was 67.45 µg/mL, the IC50 [2] was 5.65 µg/mL (≈ 32.1 µM) and the IC50 [3] was 44.62 µg/mL (≈ 253 µM).

Compound `COc1ccc2c(c1)oc1c(OC)c(O)c(OC)cc12` has an LC50 at 24 h [7] of 30 µg/mL (≈ 109 µM).

For `O=C(OC[C@H]1O[C@@H](OC(=O)c2cc(O)c(O)c(O)c2)[C@H](OC(=O)c2cc(O)c(O)c(O)c2)[C@@H](OC(=O)c2cc(O)c(O)c(O)c2)[C@@H]1OC(=O)c1cc(O)c(O)c(O)c1)c1cc(O)c(O)c(O)c1` [PENTAGALLOYL GLUCOSE], the IC50 (Mushroom tyrosinase [8]) was 0.02 µM and the IC50 (Mushroom tyrosinase [9]) was 0.02 µM.

Compound `CC1(C)[C@@H](O)CC[C@]2(C)[C@H]3C(=O)C=C4[C@@H]5C[C@@](C)(C(=O)O)CC[C@]5(C)CC[C@@]4(C)[C@]3(C)CC[C@@H]12` [ENOXOLONE] has an IC50 [4] of 7.31 µg/mL and an inhibition [10] of 92.6%.

`COc1cc(O)c2c(=O)c(-c3ccc(O)cc3O)coc2c1` [CAJANIN] gave an IC50 (MNT-1) of 1 µM.

Compound `NCCCC[C@H](NC(=O)[C@H](Cc1cnc[nH]1)NC(=O)CN)C(=O)O` (H-Gly-His-Lys-OH) has an LC50 at 24 h [7] of 30 µg/mL (≈ 88.1 µM).

Compound `COc1cc(O)c2c(c1)OC(c1ccc(O)cc1O)CC2=O` (stereo unspecified) has an IC50 [11] of 38.78 µg/mL (≈ 128 µM).

In the case of `C=C(CC[C@@H](C(=O)O)[C@H]1[C@H](O)C[C@@]2(C)C3=CC[C@@H](C(=C)C)[C@](C)(CCC(=O)O)C3=CC[C@]12C)C(C)C` [PORICOIC ACID A], the inhibition [12] is reported as 40.9%, the inhibition [13] is reported as 39.5% and the IC50 (B16) is reported as 48 µg/mL (≈ 96.3 µM).

With `C[C@@]12C[C@@]3(O)O[C@@H](O1)[C@]1(COC(=O)c4ccccc4)[C@H]3C[C@@]12O[C@@H]1O[C@H](COC(=O)c2cc(O)c(O)c(O)c2)[C@@H](O)[C@H](O)[C@H]1O` the inhibition [10] was 94.9% and the IC50 (Mushroom tyrosinase [8]) was 0.17 µM.

Compound `COc1c(O)cc2occ(-c3ccc(O)cc3)c(=O)c2c1O` [TECTORIGENIN] has an IC50 (Mushroom tyrosinase [1]) of 1.39 µg/mL, an IC50 [2] of 46.34 µg/mL (≈ 154 µM) and an IC50 [3] of 45.6 µg/mL (≈ 152 µM).

Compound `O=C(O)CC(OC(=O)/C=C/c1ccc(O)cc1)C(=O)O` (stereo unspecified) has an inhibition [14] of 16.3%.

Work on `C/C1=C\CC(C)(C)/C=C/C(=O)/C(C)=C/CC1` [ZERUMBONE] yielded an Activity (B16-F10 [15]) of 40%.

In the case of `O=C(O)c1cc(O)c(O)c(O)c1` [GALLIC ACID], the IC50 (Mushroom tyrosinase [8]) is reported as 1.53 µM and the IC50 (Mushroom tyrosinase [9]) is reported as 1.06 µM.

Work on `COc1cc2c(oc3c(O)cccc32)c(OC)c1OC` yielded an LC50 at 24 h [7] of 37 µg/mL (≈ 135 µM).

Work on `COc1cc2c(cc1O)[C@@H]1COc3cc(O)ccc3[C@@H]1O2` yielded an Activity (B16-F10 [16]) of 14%.

In the case of `COc1c(O)c(OC)c2c(oc3c(O)cccc32)c1OC`, the LC50 at 24 h [7] is reported as 4 µg/mL (≈ 13.8 µM).

Work on `O=C(/C=C/c1ccc(O)c(O)c1)OC(C(=O)O)C(O)C(=O)O` (stereo unspecified) [CAFFEOYLTARTARIC ACID] yielded an IC50 (Mushroom tyrosinase [1]) of 30 µM.

Work on `Oc1cc(O)c2c(c1)O[C@H](c1ccc(O)c(O)c1)[C@@H](O)C2` [CIANIDANOL] yielded an IC50 (Mushroom tyrosinase [8]) of 0.06 µM and an IC50 (Mushroom tyrosinase [9]) of 0.07 µM.

With `Cc1ccc(C(C)C)c(O)c1` [THYMOL] the IC50 (B16-F10 [17]) was 160 µM.
